“And” between values parts separate entries of the source, which are not always exact repeats. Equal values may be shown once.
What was measured:
[1] = system: BCL-xL/PROTAC/VCB ternary complex (HiBit-BCL-xL, HaloTag-VHL); experiment: NanoBRET intracellular ternary complex formation in 293T cells, BCL-xL; format: cell-based, human; details: NanoBRET, 293T cells, 6 h
How it was run: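 293T cells were transfected with HiBit-BCL-xL or HiBit-BCL-2 plus HaloTag-VHL and incubated overnight with or without HaloTag NanoBRET 618 ligand in 4% FBS Opti-MEM. Serially diluted compounds were applied for 6 h at 37 °C. mBRET ratio from donor emission (450/50 nm) and acceptor emission (610 nm longpass) after Nano-Glo substrate.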

[2] = target: T1, BCL-2/PROTAC/VCB ternary complex (Homo sapiens, UniProt P10415+P40337); experiment: AlphaLISA ternary complex formation, cell-free, BCL-2; format: binding; details: for in vitro ternary complex formation with BCL-2 (in words): AlphaLISA, cell-free, Fig. 2d, 3f; for AlphaLISA signal, BCL-2/PROTAC/VCB: Fig. 2d raw Alpha reads
T1 construct: pGEX-6P-1-VHL(54-213) (pDL2200) was constructed through Gibson assembly method; made in house; host or cells: bacterial culture (LB broth, IPTG induction)
T1 sequence (P10415 1-211 limits assumed): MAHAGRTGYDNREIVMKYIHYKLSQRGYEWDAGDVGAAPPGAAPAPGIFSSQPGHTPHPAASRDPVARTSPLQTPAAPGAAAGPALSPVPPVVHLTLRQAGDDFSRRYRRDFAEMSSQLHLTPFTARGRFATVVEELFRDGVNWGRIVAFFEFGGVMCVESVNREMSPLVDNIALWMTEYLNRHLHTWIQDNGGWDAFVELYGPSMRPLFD
T1 sequence (P40337 54-213 limits assumed): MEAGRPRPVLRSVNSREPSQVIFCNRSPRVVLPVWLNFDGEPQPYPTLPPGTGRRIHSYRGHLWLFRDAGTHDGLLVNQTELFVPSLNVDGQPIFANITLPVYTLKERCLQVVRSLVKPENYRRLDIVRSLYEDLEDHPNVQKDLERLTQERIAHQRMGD
T1 sequence (Q15369 17-112 partner limits assumed): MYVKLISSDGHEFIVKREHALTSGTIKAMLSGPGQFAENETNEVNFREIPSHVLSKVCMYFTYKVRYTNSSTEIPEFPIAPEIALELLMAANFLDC
T1 sequence (Q15370 whole entry partner): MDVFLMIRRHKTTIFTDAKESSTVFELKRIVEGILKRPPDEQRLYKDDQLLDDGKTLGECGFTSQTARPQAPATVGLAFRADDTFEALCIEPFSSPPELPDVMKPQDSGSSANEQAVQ
How it was run: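 Cell-free AlphaLISA: 5 nM His-tagged BCL-xL or BCL-2 plus 5 nM GST-VCB incubated with fourfold serially diluted compound 30 min at room temperature. Glutathione donor and His acceptor beads (20 µg/ml each) then added for 15 and 45 min; AlphaLISA signal plotted against compound concentration.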

[3] = compound 200000 nM, 2 technical replicates

| Structure (SMILES) | intracellular ternary complex formation with BCL-xL (in words) [1] | in vitro ternary complex formation with BCL-2 (in words) [2] | AlphaLISA signal, BCL-2/PROTAC/VCB ([2]; compound 0.763 nM) | AlphaLISA signal, BCL-2/PROTAC/VCB ([2]; compound 3.052 nM) | AlphaLISA signal, BCL-2/PROTAC/VCB ([2]; compound 12.207 nM) | AlphaLISA signal, BCL-2/PROTAC/VCB ([2]; compound 48.828 nM) | AlphaLISA signal, BCL-2/PROTAC/VCB ([2]; compound 195.31 nM) | AlphaLISA signal, BCL-2/PROTAC/VCB ([2]; compound 781.25 nM) | AlphaLISA signal, BCL-2/PROTAC/VCB ([2]; compound 3125 nM) | AlphaLISA signal, BCL-2/PROTAC/VCB ([2]; compound 12500 nM) | AlphaLISA signal, BCL-2/PROTAC/VCB ([2]; compound 50000 nM) | AlphaLISA signal, BCL-2/PROTAC/VCB [2, 3] | AlphaLISA signal, BCL-2/PROTAC/VCB ([2]; compound 0.191 nM) |
| --- | --- | --- | --- | --- | --- | --- | --- | --- | --- | --- | --- | --- | --- |
| Cc1ncsc1-c1ccc([C@H](C)NC(=O)[C@@H]2C[C@@H](O)CN2C(=O)[C@@H](NC(=O)CCCCCC(=O)N2CCN(CC3(C)CCC(c4ccc(Cl)cc4)=C(CN4CCN(c5ccc(C(=O)NS(=O)(=O)c6ccc(N[C@H](CCN7CCOCC7)CSc7ccccc7)c(S(=O)(=O)C(F)(F)F)c6)cc5)CC4)C3)CC2)C(C)(C)C)cc1 (some centres unmarked) [PPC7] | stronger BCL-xL/PROTAC/VHL-EloC-EloB (VCB) ternary complexes | stronger ternary complexes | 20141 and 15109 | 29796 and 29041 | 146984 and 135341 | 1032585 and 1008497 | 1592216 and 1719187 | 1513830 and 1470142 | 403994 and 403317 | 43692 and 35758 | 12115 and 13570 | 14257 and 11084 | – |
| Cc1ncsc1-c1ccc([C@H](C)NC(=O)[C@@H]2C[C@@H](O)CN2C(=O)[C@@H](NC(=O)CCCCCCC(=O)N2CCN(CC3(C)CCC(c4ccc(Cl)cc4)=C(CN4CCN(c5ccc(C(=O)NS(=O)(=O)c6ccc(N[C@H](CCN7CCOCC7)CSc7ccccc7)c(S(=O)(=O)C(F)(F)F)c6)cc5)CC4)C3)CC2)C(C)(C)C)cc1 (some centres unmarked) [PPC8] | stronger BCL-xL/PROTAC/VHL-EloC-EloB (VCB) ternary complexes | stronger ternary complexes | 16981 and 16694 | 31764 and 30263 | 220610 and 232235 | 1164349 and 1304184 | 1706795 and 1639825 | 1791615 and 1848085 | 524010 and 562226 | 80335 and 78686 | 17935 and 18240 | 8109 and 11043 | 15495 and 15269 |
| Cc1ncsc1-c1ccc([C@H](C)NC(=O)[C@@H]2C[C@@H](O)CN2C(=O)[C@@H](NC(=O)CCCCCCCC(=O)N2CCN(CC3(C)CCC(c4ccc(Cl)cc4)=C(CN4CCN(c5ccc(C(=O)NS(=O)(=O)c6ccc(N[C@H](CCN7CCOCC7)CSc7ccccc7)c(S(=O)(=O)C(F)(F)F)c6)cc5)CC4)C3)CC2)C(C)(C)C)cc1 (some centres unmarked) [PPC9] | stronger BCL-xL/PROTAC/VHL-EloC-EloB (VCB) ternary complexes | much weaker ternary complexes | 17336 and 18248 | 22108 and 21304 | 71357 and 62189 | 336659 and 328291 | 357647 and 419151 | 267337 and 283839 | 78279 and 78565 | 15094 and 15494 | 7032 and 8982 | 9255 and 9885 | 13571 and 17652 |

Source: article PMC8617031, “Development of a BCL-xL and BCL-2 dual degrader with improved anti-leukemic activity,” (Nature Communications, 2021)
